The source of these data is US20030166583A1, “Dermal cytochrome P450 1A inhibitors and enhancers” (priority 2002, published 2003).

“Also recorded” adds a separate entry of the source.

For series [1], the system named is CYP1A. Put plainly: Liver microsomal CYP1A enzymatic activity, inhibition or enhancement. As to conditions: nude, mouse, liver microsomes, pH 7.8, probe 7-ethoxyresorufin. A general note: Microsomes from liver hold many membrane-bound enzymes, among them those of drug oxidation.
Method: (§1) Nude mice were sacrificed by decapitation. The skin and liver were immediately removed and kept in ice bath or 4° C. […] Connective tissue, blood, and fat were carefully removed from the tissue. Excess water content was removed from the homogenized tissue by tissue papers before the tissue was weighed.
(§2) The suspension of homogenized tissue in potassium chloride solution was transferred into a Teflon pestle-glass homogenizer for homogenization for six (6) times. Then, potassium chloride solution was added into the homogenized suspension to bring the volume to about four (4) times of the homogenized suspension. The diluted suspension was 5 transferred into a centrifuge tube and centrifuged at 4° C., 9000 xg, for twenty (20) minutes. The supernatant containing microsomes from skin or liver tissue and other soluble substance were removed and the volume of the supernatant was brought up to four (4) times of the weight of the tissue by adding potassium chloride solution. The diluted supernatant was transferred into a centrifuge tube and centrifuged at 4° C., 100,000 xg, for one (1) hour (Beckman L8-80M). The precipitate containing the microsomes was obtained. Potassium chloride solution was added into the precipitate to bring the volume up to four (4) times of the weight of the tissue, and the suspension was centrifuged at 4° C., 100,000 xg for one (1) hour, to obtain the washed microsomes, which were stored at −78° C. in 0.1M KH2PO4-K2HPO4 buffer (pH=7.4).
(§3) The enzymatic activity of CYP1A was determined based on the activity of 7-ethoxyresorufin-O-deethylase (i.e., for CYP1A) and 7-methoxyresorufin-O-demethylase (i.e., CYP1A2). […] Except for the blank group, the reaction was triggered by adding 0.54 μM NADPH. In the test tube (16×100 mm), the reaction was carried out for ten (10) minutes at constant temperature (37° C.) with vibration and without light Methanol 2.5 ml was added into the reaction mixture to stop the reaction. Protein precipitate was removed from the reaction mixture by centrifuging the reaction mixture at 180 xg for ten (10) minutes. The supernatant was tested for florescent intensity with 550 nm as the excitation wavelength and 585 nm the emission wavelength. The florescent intensity was compared with 0.01 μM-0.1 μM standard Rhodamine B solution to obtain the reading of the CYP1A enzyme activity.
The subject of a further series is liver CYP1A. The description is as above. Particulars: at certain concentration (1, 10 or 100 μM).
The subject of series [2] is CYP1A. Kind of series: in vitro. As to conditions: nude, mouse. The source says: Nude mice were sacrificed by decapitation.
The precipitate containing the microsomes was obtained.

Where [3] appears, read: pH 7.8, dermal CYP1A activity (% of control group).

Method for liver CYP1A: as §1, §2, §3

For `CC1(C)[C@@H](O[C@H]2O[C@H](C(=O)O)[C@@H](O)[C@H](O)[C@H]2O[C@@H]2O[C@H](C(=O)O)[C@@H](O)[C@H](O)[C@H]2O)CC[C@]2(C)[C@H]3C(=O)C=C4[C@@H]5C[C@@](C)(C(=O)O)CC[C@]5(C)CC[C@@]4(C)[C@]3(C)CC[C@@H]12` [Glycyrrihizin, Glycyrrhizin], in the series on CYP1A [1], the activity at 10 min, 1 µM is 118%; the activity at 10 min, 10 µM came out at 99.9%; the activity at 10 min, 100 µM came to 89.1%. For the same compound, in the series on liver CYP1A, the “enhancing effect on liver CYP1A activity, in words” value (“enhancing effect … in words” below) is “enhancing effect” and the “inhibitory effect on liver CYP1A activity, in words” value was “inhibitory effects”. In the series on CYP1A [2] (pH 7.8), the activity at 10 min, 1 µM was determined as 98.9%; the activity at 10 min, 10 µM was found to be 102%; the activity at 10 min, 100 µM turned out to be 107%.

For the compound `CCCCCCCCCCCCO` [Lauryl alcohol], in the series on CYP1A [1], the activity at 10 min, 1 µM stood at 113%; the activity at 10 min, 10 µM amounted to 115%; the activity at 10 min, 100 µM was determined as 101%. For the same compound, the “enhancing effect … in words” value with liver CYP1A was “enhancing effect”. Also, in the series on CYP1A [2] (pH 7.8), the activity at 10 min, 1 µM amounted to 88.2%; the activity at 10 min, 10 µM stood at 97.2%; the activity at 10 min, 100 µM came out at 52.4%; the inhibition (usually the percentage by which the read-out fell short of the control) at 10 min, 100 µM is around 48%.

As for `CC(Cc1ccc(O)c(O)c1)C(C)Cc1ccc(O)c(O)c1` (stereo not drawn) [Nordihydroguaiaretic acid], in the series on CYP1A [1], the activity at 10 min, 1 µM was found to be 140%; the activity at 10 min, 10 µM was determined as 147%; the activity at 10 min, 100 µM turned out to be 119%. Further, in the series with liver CYP1A, the “enhancing effect … in words” value was “enhancing effect; also recorded: most enhancing effect”. In addition, in the series on CYP1A [2] (pH 7.8), the activity at 10 min, 1 µM was determined as 110%; the activity at 10 min, 10 µM was 96.6%; the activity at 10 min, 100 µM stood at 59.5%; the inhibition at 10 min, 100 µM is around 41%.

As for `C[C@@]12C[C@@]3(O)O[C@@H](O1)[C@]1(COC(=O)c4ccccc4)[C@H]3C[C@@]12O[C@@H]1O[C@H](CO)[C@@H](O)[C@H](O)[C@H]1O` [Paeoniflorin], in the series on CYP1A [1], the activity at 10 min, 1 µM was found to be 123%; the activity at 10 min, 10 µM amounted to 124%; the activity at 10 min, 100 µM came to 121%. Further, the “enhancing effect … in words” value in the series with liver CYP1A is “enhancing effect”. In addition, in the series with CYP1A [2] (setting [3]), the activity at 10 min, 1 µM came out at 91%; the activity at 10 min, 10 µM came out at 105%; the activity at 10 min, 100 µM turned out to be 104%.

Consider `O=C(O)c1ccc(O)c(O)c1` [Protocatechuic acid], for which, in the series with CYP1A [1], the activity at 10 min, 1 µM stood at 119%; the activity at 10 min, 10 µM worked out at 123%; the activity at 10 min, 100 µM amounted to 107%. In addition, the “enhancing effect … in words” value in the series with liver CYP1A is “enhancing effect”. For the same compound, in the series with CYP1A [2] (setting [3]), the activity at 10 min, 1 µM came out at 138%; the activity at 10 min, 10 µM came to 121%; the activity at 10 min, 100 µM was 102%.

Take `O=c1c(O)c(-c2ccc(O)c(O)c2)oc2cc(O)cc(O)c12` [Quercetin]: in the series on CYP1A [1], the activity at 10 min, 1 µM worked out at 114%; the activity at 10 min, 10 µM was 86.7%; the activity at 10 min, 100 µM was 19.2%. Also, in the series with liver CYP1A, the “enhancing effect … in words” value is on record as “enhancing effect” and the “inhibitory effect on liver CYP1A activity, in words” value is recorded as “inhibitory effects; also recorded: most inhibitory effect; also recorded: most effective inhibitors”. Moreover, in the series with CYP1A [2] (pH 7.8), the activity at 10 min, 1 µM came to 67.9%; the activity at 10 min, 10 µM came out at 41.9%; the activity at 10 min, 100 µM came out at 8.37%; the inhibition at 10 min, 100 µM was around 92%.

Take `O=c1ccc2ccc(O)cc2o1` [Umbelliferone]: in the series with CYP1A [1], the activity at 10 min, 1 µM was 120% and the activity at 10 min, 10 µM was 119%. Moreover, in the series on liver CYP1A, the “enhancing effect … in words” value is listed as “enhancing effect”. Moreover, in the series with CYP1A [2] (pH 7.8), the activity at 10 min, 1 µM is 72.5%; the activity at 10 min, 10 µM was determined as 52.7%; the activity at 10 min, 100 µM is 75.8%; the inhibition at 10 min, 10 µM was around 47%.
